From the supplement of paper PMC10477900
Where a name gives a salt, the structure may show the parent alone.

What was measured:
HCT116 [1] = details: 72 h
Protocol: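 HCT116 control and MTA1-KO (CRISPR) HCT116 cells were seeded in 384-well plates (800 cells/well), treated 16 h later with 237 metabolism-related anticancer drugs at five doses (10 uM, 2 uM, 400 nM, 80 nM, 16 nM) for 72 h, two replicates; viability by CCK8. Values are % inhibition of viability relative to untreated cells, plus fitted IC50.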

HCT116 [2] = test: viability inhibition vs untreated; higher = more cytotoxic; details: 72 h

SMILES | IC50 (HCT116 [1]; genotype: MTA1-KO) [µM] | IC50 (HCT116 [1]; genotype: control) [µM] | viability inhibition (HCT116 [2]; genotype: MTA1-KO, 16 nM) [%] | viability inhibition (HCT116 [2]; genotype: MTA1-KO, 80 nM) [%] | viability inhibition (HCT116 [2]; genotype: MTA1-KO, 400 nM) [%] | viability inhibition (HCT116 [2]; genotype: MTA1-KO, 2000 nM) [%] | viability inhibition (HCT116 [2]; genotype: MTA1-KO, 10000 nM) [%] | viability inhibition (HCT116 [2]; genotype: control, 16 nM) [%] | viability inhibition (HCT116 [2]; genotype: control, 80 nM) [%] | viability inhibition (HCT116 [2]; genotype: control, 400 nM) [%] | viability inhibition (HCT116 [2]; genotype: control, 2000 nM) [%] | viability inhibition (HCT116 [2]; genotype: control, 10000 nM) [%]
O=C(O)CCC(=O)c1ccc(-c2ccccc2)cc1 [Fenbufen] | > 10 | > 10 | -12.7 | -18.9 | -14.3 | 3.54 | -0.929 | 3.15 | 8.7 | 7.49 | 6.47 | 10.4
Cc1ccc2nc(N)[nH]c(=O)c2c1Sc1ccncc1 [Nolatrexed] | 9.66 | > 10 | 8.71 | 2.94 | -1.21 | 1.75 | 76 | -21.6 | -20.5 | 4.76 | -22.2 | -11.3
COc1cnc(NS(=O)(=O)c2ccc(N)cc2)nc1 [Sulfameter] | > 10 | > 10 | -10.8 | -13.8 | -0.547 | -4.82 | -3.61 | 0.414 | 5.13 | 12.1 | 8.51 | 0.478
c1ccc2c(CCNc3ccc(Nc4ccncc4)cc3)c[nH]c2c1 [Serdemetan] | 1.66 | 2.48 | 10.9 | 7.55 | 13.6 | 65.6 | 107 | 10.5 | 10.9 | 5.2 | 5.93 | 85.1
NS(=O)(=O)c1cc2c(cc1Cl)NC=NS2(=O)=O [Chlorothiazide] | > 10 | > 10 | -10.2 | -0.674 | -4.5 | -3.61 | -8.39 | 3.92 | 0.542 | 0.606 | -0.861 | 5.64
COc1ccc(-c2ccc3ncc4c(c3c2)n(-c2ccc(N3CCNCC3)c(C(F)(F)F)c2)c(=O)n4C)cn1 [BGT226] | 0.0773 | 0.0713 | 3.91 | 56.3 | 83 | 97.4 | 106 | -4.27 | 60.1 | 90.7 | 99 | 116
NS(=O)(=O)Cc1noc2ccccc12 [Zonisamide] | > 10 | > 10 | 2.91 | -1.38 | -4.06 | -5.28 | -6.62 | -7.18 | -18.6 | 2.58 | 2.07 | 31.7
Nc1ncnc2c1ncn2[C@@H]1O[C@H](COP(=O)(O)O)[C@@H](O)[C@H]1O [Adenosine 5'-monophosphate monohydrate] | > 10 | > 10 | -22.7 | -25.1 | -20.2 | -18.3 | -15.5 | 14.8 | 5.2 | 12.1 | 10.3 | 11.9
COc1ccc(COc2cc3oc(=O)c4cc(C(C)O)ccc4c3cc2OC)cc1 (stereo unspecified) [Palomid 529] | 0.283 | 1.11 | -7.41 | 23.6 | 37.3 | 64.4 | 90.1 | 7.44 | 22.7 | 38.9 | 54.6 | 86.9
COCC1(CO)C(=O)C2CCN1CC2 (stereo unspecified) [PRIMA-1Met] | > 10 | > 10 | 7.04 | 1.21 | 20.1 | -5.66 | 5.13 | 13.6 | 13 | 5.28 | 1.17 | 30.6
CC(C)(CCCCCC(O)CCCCCC(C)(C)C(=O)O)C(=O)O [ETC1002] | > 10 | > 10 | 2.14 | -10.3 | -6.64 | -17.1 | -9.91 | 10.7 | -0.834 | -5.92 | -6.48 | -5.51
Cc1ccc(S(=O)(=O)Cc2nc(-c3ccc(C(=O)NCc4cccnc4)cc3)oc2C)cc1 | > 10 | > 10 | 5.08 | -6.5 | -22.3 | -11.9 | 2.23 | 9.95 | 6.71 | 18.9 | 19 | 26.9
Nc1nc(NC2CC2)cc(-c2cccc(Cl)c2Cl)n1 [TH588] | 5.34 | 8.67 | -0.076 | 6.2 | 2.73 | 14.7 | 80.3 | -7.89 | -5.19 | -7.31 | -7.46 | 74
COc1ccccc1OCC(O)CN1CCN(CC(=O)Nc2c(C)cccc2C)CC1 (stereo unspecified) [Ranolazine dihydrochloride] | > 10 | > 10 | -7.57 | -13.7 | -7.85 | -21.5 | -19 | -2.04 | 2.97 | -7.95 | -0.947 | 15
C=CC[C@@H]1/C=C(\C)C[C@H](C)C[C@H](OC)[C@H]2O[C@@](O)(C(=O)C(=O)N3CCCC[C@H]3C(=O)O[C@H](/C(C)=C/[C@@H]3CC[C@@H](O)[C@H](OC)C3)[C@H](C)[C@@H](O)CC1=O)[C@H](C)C[C@@H]2OC [Tacrolimus] | > 10 | > 10 | -4.95 | -4.18 | 0.155 | -5.39 | -7.24 | 5.2 | 13.7 | 18 | 7.23 | 7.94
O=C(O)c1nn(Cc2ccc(Cl)cc2Cl)c2ccccc12 [Lonidamine] | > 10 | > 10 | -2.77 | -15.4 | -12.8 | -13.1 | 17.1 | 4.32 | -14 | -10.1 | 0.337 | 23.5
Cc1nc(Nc2cnn(C3CCNCC3)c2)nc2c1N(C)C(=O)c1cc3ccccc3cc1N2C [HTH-01-015] | 7.99 | > 10 | -1.49 | 5.48 | -1.32 | 5.37 | 62.5 | 2.33 | 10.7 | 23.3 | 17.9 | 40.7
CC(C)c1ccc(C(=O)N=C(N)N)cc1S(C)(=O)=O [Cariporide] | > 10 | > 10 | -28.1 | -33.2 | -32 | -35.2 | -20.9 | 19.4 | -4.81 | -9.25 | -4.56 | 22.7
O=C(O)[C@@]1(CCCCCCOc2ccc(Cl)cc2)CO1 [(R)-Etomoxir sodium salt] | > 10 | > 10 | -11.4 | -21.5 | -17.4 | -13.9 | 37.6 | 12.3 | 19.7 | 14.6 | 15.3 | 26.1

SMILES | IC50 (HCT116 [1]; genotype: MTA1-KO) [µM] | IC50 (HCT116 [1]; genotype: control) [µM] | viability inhibition (HCT116 [2]; genotype: MTA1-KO, 16 nM) [%] | viability inhibition (HCT116 [2]; genotype: MTA1-KO, 80 nM) [%] | viability inhibition (HCT116 [2]; genotype: MTA1-KO, 400 nM) [%] | viability inhibition (HCT116 [2]; genotype: MTA1-KO, 2000 nM) [%] | viability inhibition (HCT116 [2]; genotype: MTA1-KO, 10000 nM) [%] | viability inhibition (HCT116 [2]; genotype: control, 16 nM) [%] | viability inhibition (HCT116 [2]; genotype: control, 80 nM) [%] | viability inhibition (HCT116 [2]; genotype: control, 400 nM) [%] | viability inhibition (HCT116 [2]; genotype: control, 2000 nM) [%] | viability inhibition (HCT116 [2]; genotype: control, 10000 nM) [%]
CCCC[S+]([O-])c1sc2nc(-c3cccs3)cc(-c3ccccc3)c2c1N (stereo unspecified) | > 10 | > 10 | 13.3 | 12.3 | 5.6 | 9.12 | 41.9 | 5.17 | 3.85 | 2.26 | 4.74 | 8.23
CN(C)CCCCC(=O)Nc1ccc(NC(=S)NC(=O)c2ccc(C(C)(C)C)cc2)cc1 [Tenovin-6] | > 10 | 7.71 | -14.1 | -19.6 | -23.8 | -20.1 | 43.5 | -8.39 | 1.22 | 8.03 | 5.54 | 67.5
Cc1ccccc1C(C(=O)NC1CCCCC1)N(C(=O)Cn1ccnc1C)c1cccc(F)c1 (stereo unspecified) [AGI5198] | > 10 | > 10 | 7.58 | 7.91 | 5.76 | 8.57 | 37.4 | -3.24 | -17.7 | -10.7 | -12.3 | 2.37
COc1ccc([C@@H]2OC[C@H]3[C@@H]2CO[C@@H]3c2ccc(O[C@@H]3O[C@H](CO)[C@@H](O)[C@H](O)[C@H]3O)c(OC)c2)cc1OC [Forsythin] | > 10 | > 10 | 5.1 | -3.89 | -0.379 | 2.87 | 27.7 | 8.22 | 24 | 15.4 | -3.75 | 24.5
O=C(O)c1c[nH]c2cc(Cl)c(-c3ccc(C4(O)CCC4)cc3)cc12 | 3.94 | > 10 | -7.04 | 0.458 | -9.68 | 0.998 | 72.2 | -1.55 | -12.5 | -12.9 | -5.3 | 7.54
Cc1c(NC(=O)c2cc(C(N)=O)nc3cc(F)ccc23)c(C(F)(F)F)nn1Cc1ccc(C#N)cc1 [BAY876] | < 0.016 | < 0.016 | 50.2 | 73 | 82 | 90.4 | 110 | 72.8 | 89.8 | 97.7 | 103 | 102
CC(=O)Nc1ccc(NC(=S)NC(=O)c2ccc(C(C)(C)C)cc2)cc1 [Tenovin-1] | 0.456 | 0.931 | -26.3 | -21.8 | 12.8 | 59.2 | 62.3 | -20.9 | -18.3 | 3.67 | 73.1 | 90.4
N[C@@H]1C[C@H]1c1ccccc1 [Tranylcypromine (2-PCPA) hydrochloride] | > 10 | > 10 | -22.8 | -17.9 | -14.3 | -18.2 | -15.3 | -0.159 | -12.9 | -1.62 | -5.71 | -28
S=C(N/N=C1/CCCc2cccnc21)N1CCN(c2ccccn2)CC1 [COTI2] | 0.246 | 1.07 | 5.92 | 0.177 | 50.3 | 49.7 | 67.4 | 8.87 | -13.6 | -3.5 | 87.4 | 88.4
O=C(/C=C/c1ccc2ccc(C(F)(F)F)cc2n1)c1ccncc1 [PFK158] | 3.1 | 3.89 | -5.2 | -29.6 | -31.5 | -28.1 | 121 | 8.64 | -5.17 | 1.7 | -5.11 | 96.2
C=C1C(=O)O[C@H]2[C@H]1CC/C(C)=C/CC[C@@]1(C)O[C@@H]21 [Parthenolide] | 2.9 | 6.58 | 13.7 | 23.4 | 17.3 | 27.8 | 114 | -4.45 | 2.37 | -14.2 | -17.8 | 100
COC1CCC(N2C(=O)CNc3ncc(-c4ccc(C(C)(C)O)nc4)nc32)CC1 (stereo unspecified) [CC223] | > 10 | > 10 | -8.46 | -17.5 | -1.64 | 13.1 | 22.1 | 11.3 | -6.69 | -3.2 | -6.07 | 35.3
O=C(O)c1cccnc1Nc1cccc(C(F)(F)F)c1 [Niflumic acid] | > 10 | > 10 | -15.2 | -17.4 | -11.9 | -15.8 | -9.84 | 3.66 | 11.1 | -0.91 | -2.33 | 0.571
Cc1ccc(C(=O)Cn2c3c(sc2=N)CCCC3)cc1 [Pifithrin-α] | > 10 | > 10 | -1.55 | -3.09 | -7.19 | 3.88 | 32 | 9.06 | 2.07 | 21.3 | 9.85 | 22.1
Cc1cc(C2CCCCC2)n(O)c(=O)c1 [Ciclopirox] | 4.96 | 1.02 | -13.6 | 8.1 | -8.33 | 25.7 | 64.7 | 9.52 | 6.31 | 24 | 77 | 113
Nc1ccccc1S(N)(=O)=O [2-Aminobenzenesulfonamide] | > 10 | > 10 | -12 | -6.34 | -8.18 | -6.12 | -8.74 | -4.67 | -10.5 | -7.82 | -0.883 | 19.7
C=C(C)[C@H]1Cc2c(ccc3c2O[C@@H]2COc4cc(OC)c(OC)cc4[C@@H]2C3=O)O1 [Rotenone] | 0.0743 | < 0.016 | 16.6 | 34.1 | 35.3 | 43.4 | 51.6 | 63.1 | 57.1 | 46.9 | 45.4 | 65.4
CC1=NS(=O)(=O)c2cc(Cl)ccc2N1 [Diazoxide] | > 10 | > 10 | 7.55 | 5.32 | 16.2 | 16 | 35.1 | 3.13 | 23.2 | 0.951 | 4.98 | 3.64
O=c1c2cc(O)c(O)cc2oc2cc(O)c([C@@H]3O[C@H](CO)[C@@H](O)[C@H](O)[C@H]3O)c(O)c12 [Mangiferin] | > 10 | > 10 | -12.5 | -17.6 | -11.2 | -10.4 | -14.8 | -7.62 | 8.64 | 4.62 | 6.09 | 1.62
